Test results published in article PMC9753400, “Conformational alteration in glycan induces phospholipase Cβ1 activation and angiogenesis” (Journal of Biomedical Science, 2022).
Blank lines part the entries; values can stand above or below the molecule they belong to.

Legend:
[1] = target: T1, TRAX (translin-associated factor X) (Homo sapiens, UniProt Q99598); assay: SPR (Biacore X), TRAX amine-coupled to CM5 chip; type: binding; details: HBS-P running buffer, GSL diluted from methanol stock
T1 construct: gene TSNAX; full-length, cDNA from HUVEC mRNA, pET-21d, nine-histidine tag (text says N-terminal; His codons printed in the R'-primer), expressed in E. coli BL21 (DE3), HisTrap / DEAE / SP-Sepharose; immobilised on CM5 chip
T1 sequence (Q99598 1-290): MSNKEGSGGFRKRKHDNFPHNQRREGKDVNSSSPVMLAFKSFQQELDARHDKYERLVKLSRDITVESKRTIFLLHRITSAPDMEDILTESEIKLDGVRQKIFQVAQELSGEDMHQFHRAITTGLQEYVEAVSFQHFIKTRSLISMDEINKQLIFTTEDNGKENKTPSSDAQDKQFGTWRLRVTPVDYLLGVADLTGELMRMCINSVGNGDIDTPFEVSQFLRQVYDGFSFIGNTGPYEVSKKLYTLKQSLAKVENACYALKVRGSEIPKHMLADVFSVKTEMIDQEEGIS

[2] = target: T2, recombinant human full-length translin-associated factor X (TRAX) (human, UniProt Q99598 1-290); assay: SPR; Biacore X; TRAX amine-coupled to CM5 chip (about 2500 RU), PLCβ1-C flowed over, HBS-P running buffer; competition runs with PLCβ1-C 360 nM plus 0, 1 or 9 μM GHCer; details: both partners purified
T2 construct: translin-associated factor X (TRAX), human, full length, cDNA from HUVECs, in pET-21d; Removal of the tag is not mentioned; also called recombinant TRAX; wild-type TRAX; source: E. coli BL21 (DE3) pLys, purified (HisTrap FF, DEAE-Sepharose, SP-Sepharose)
T2 sequence (looked up): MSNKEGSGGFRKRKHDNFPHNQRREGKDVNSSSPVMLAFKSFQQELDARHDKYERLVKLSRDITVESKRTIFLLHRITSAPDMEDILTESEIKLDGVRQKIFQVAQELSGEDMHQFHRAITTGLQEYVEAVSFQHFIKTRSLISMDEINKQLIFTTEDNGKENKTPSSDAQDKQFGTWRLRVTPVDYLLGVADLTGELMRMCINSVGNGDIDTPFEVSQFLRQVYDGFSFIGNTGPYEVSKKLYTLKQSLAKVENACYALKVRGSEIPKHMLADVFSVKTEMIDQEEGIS

- Kd ([1]; competes with PLCβ1 C-terminal domain): 40.9 nM
Molecule: Fucα1 → 2Galβ1 → 3GalNAcβ1 → 3Galα1 → 4Galβ1 → 4Glcβ1-ceramide [GHCer]

- Kd ([1]; tested at 10 μM): > 10000 nM
Molecule: Galβ1 → 3GalNAcβ1 → 3Galα1 → 4Galβ1 → 4Glcβ1-ceramide [SSEA3Cer]

- Kd [2]: ~7.5 µM
B1: recombinant C-terminal domain of PLCβ1 (PLCβ1-C), amino acids 890 to 1161 (domain or fragment, human, UniProt Q9NQ66 890-1161, looked up)
chain: APAKTEDLIQSVLTEVEAQTIEELKQQKSFVKLQKKHYKEMKDLVKRHHKKTTDLIKEHTTKYNEIQNDYLRRRAALEKSAKKDSKKKSEPSSPDHGSSTIEQDLAALDAEMTQKLIDLKDKQQQQLLNLRQEQYYSEKYQKREHIKLLIQKLTDVAEECQNNQLKKLKEICEKEKKELKKKMDKKRQEKITEAKSKDKSQMEEEKTEMIRSYIQEVVQYIKRLEEAQSKRQEKLVEKHKEIRQQILDEKPKLQVELEQEYQDKFKRLPLEI
notes: phospholipase C β1 (PLCβ1), human, C-terminal domain, residues 890-1161, cDNA from HUVECs, in pET-21d; Removal of the tag is not mentioned; also called recombinant C-terminus of PLCβ1; source: E. coli BL21 (DE3) pLys, purified (HisTrap FF, DEAE-Sepharose, SP-Sepharose)
